Measured values taken from patent US20250186379A1, “METHODS AND AGENTS FOR DECREASING INSULIN RESISTANCE” (Whitehead Institute for Biomedical Research, priority 2021, published 2025).
“Also recorded” adds a separate entry of the source.

Key:
IR puncta = assay: Immunofluorescence for IR in human primary adipocytes; assay type: cell-based; settings: for IR incorporation into puncta: 3 nM insulin 5 minutes
Protocol: Primary pre-adipocytes from (ATCC, PCS-210-010) were cultured in Fibroblast Growth Kit-Low Serum (ATCC PCS-201-041), as per manufacturer's instructions. Cells for experiments were dissociated and plated at 18,000 cells/cm2. Two days later pre-adipocytes were differentiated in adipocyte differentiation media (ATCC PCS-500-050), as per manufacturer's instructions. Briefly, cells were washed and medium was replaced with adipocyte differentiation initiation medium. After 48 hours, half the medium was replaced. At day 4, medium was changed to adipocyte differentiation maintenance medium, and replaced every three days. At day 12, cells were rinsed and incubated in DMEM (Thermo Fisher, 11885084) with 0.1 or 3 nM of insulin for 5 days, replacing medium every other day. In the last 24 hours, 12.5 μM metformin was added. On day 17, cells were prepared for the assays by rinsing, and 30 minutes of washing. Afterwards, for imaging, cells were exposed to 3 nM insulin for 5 minutes, rinsed with PBS and fixed in 4% PFA for 15 minutes at room temperature. For pAKT ELISAs cells were exposed to 3 nM insulin for 15 minutes and harvested in cell lysis buffer (Cell Signaling Technology, #9803) with phosphatase inhibitor (Thermo Fisher Scientific, 78442).
For adipocytes, following differentiation, cells were cultured with EMEM for 2 days and with EMEM containing either physiological (0.1 nM) or pathological (3 nM) concentrations of insulin for 2 days. Cells were then cultured with EMEM containing either physiological (0.1 nM) or pathological (3 nM) of insulin or with pathological (3 nM) concentrations of insulin and 12.5 μM of metformin for 1 day. Cells were then washed with EMEM and acutely stimulated with or without 3 nM insulin for 5 minutes prior to cell collection for immunofluorescence or ELISA.
HepG2 cells, human liver spheroids, human primary adipocytes and human tissue liver sections were fixed in 4% PFA (VWR, BT140770-10X10) in PBS (Life Technologies, AM9625) for 10 minutes at room temperature. […]

[1] = tested on: phosphorylated IRS1 (pIRS1); assay: Imaging of phosphorylated IRS1 in IR condensates in HepG2 cells; assay type: cell-based, human
Protocol: HepG2 cells, human liver spheroids, human primary adipocytes and human tissue liver sections were fixed in 4% PFA (VWR, BT140770-10X10) in PBS (Life Technologies, AM9625) for 10 minutes at room temperature. Cells were washed three times for 5 minutes in PBS, permeabilized with 0.5% TritonX100 (Sigma Aldrich, X100) in PBS, washed three times for 5 minutes in PBS, and then blocked with 4% IgG-free BSA (VWR, 102643-516) for 15-60 minutes at room temperature. Afterwards, the cells were incubated with 1:500 or 1:1000 primary antibody (specific antibodies listed below) in 4% IgG-free BSA in PBS at 4° C. overnight. […]
To quantify pIRS1 fluorescent signal in IR puncta/condensates manually, Airyscan images were opened on Fiji as composite images. A circle or an oval was drawn around IR puncta using the oval selection tool and the average fluorescence intensity of pIRS1 in the circle or oval (=in the puncta/condensates) was determined using the measure tool on Fiji.
To quantify pIRS1 fluorescent signal in IR puncta/condensates computationally using Fiji, 3D object counter tool was used. […] 3D object counter tool then determined the intensity pIRS1 channel in the identified IR puncta. pIRS1 signal intensity was then background subtracted by a threshold determined by averaging the background intensity in a rectangular region outside of the cells.

[2] = tested on: reactive oxygen species (ROS); assay: Quantification of ROS using a ROS-sensitive dye in HepG2 cells; assay type: cell-based, human
Protocol: Cells expressing endogenous IR tagged with GFP were treated with ROS dye (Abcam, ab186029) following the manufacturer's instructions. […] Cells were incubated at 37° C. with 5% CO2 in a humidified incubator for 30 min. Cells were imaged at 37° C. using the LSM880 Microscope with Airyscan detector with 63×objective and Zen Black software (ZEISS) at the W.M. Keck Microscopy Facility, MIT. Images were then processed using Fiji/ImageJ v2.1.0/153c. Quantification of the ROS dye fluorescence intensity per cell was performed using Fiji. Using the polygon selection tool on Fiji/ImageJ v2.1.0/153c, a polygon was drawn around a cell outline, which was identified by looking at the IR-GFP channel. The average ROS dye fluorescence intensity in the polygon (=in the cell) was determined using the measure tool on Fiji/ImageJ v2.1.0/153c. […] Cells were incubated at 37° C. with 5% CO2 in a humidified incubator for 30 minutes. Cells were imaged at 37° C. using the LSM880 Microscope with Airyscan detector with 63× objective and Zen Black software (ZEISS) at the W.M. Keck Microscopy Facility, MIT. Images were then processed using Fiji/ImageJ v2.1.0/153c. Quantification of the ROS dye fluorescence intensity per cell was performed using Fiji. […] The average ROS dye fluorescence intensity in the polygon (=in the cell) was determined using the measure tool on Fiji/ImageJ v2.1.0/153c.

Compound: insulin: insulin (Sigma Aldrich, I9278-5ML) used for acute stimulation and chronic physiological or pathological exposure
- IR incorporation into puncta (IR puncta; insulin-resistant adipocytes): less able to promote further IR incorporation into puncta
- IR incorporation into puncta (IR puncta; insulin-sensitive adipocytes): promoted further IR incorporation into these puncta
- intensity of pIRS1 at IR condensates ([1]; insulin-sensitive HepG2 cells, 3 nM insulin 5 min (FIG. 17F)): increased

Compound: TNFα
- production of ROS ([2]; HepG2 cells (FIG. 27C), also refs 19,77-79): excessive production of ROS

Compound: CN(C)C(=N)N=C(N)N [metformin, reference compound]
- ROS levels (ROS-sensitive dye) ([2]; insulin resistant HepG2 cells, 12.5 μM metformin): reduced ROS levels to those found in insulin sensitive cells; also recorded: reduced ROS levels to those found in insulin-sensitive cells
- IR incorporation into puncta (IR signal) (IR puncta; insulin-resistant adipocytes, 12.5 μM metformin 1 day, 3 nM insulin 5 min): reversed
- levels of phosphorylated IRS1 in IR-containing condensates ([1]; insulin-resistant cells + metformin, 3 nM insulin 5 min (FIG. 18C)): partially rescued
